The values that follow are results of earlier work, collected in patent US20130115264A1, “IMPLANTABLE RASAGILINE COMPOSITIONS AND METHODS OF TREATMENT THEREOF” (Endo Pharmaceuticals Solutions Inc., priority 2011, published 2013).

Structures can show the parent of a compound that is named as a salt.

The conditions of series [1]: oral dosage form.
The conditions of series [2]: in vivo.
For another series, the system named is MAO-B. Particulars: ex vivo, brain, liver and intestinal tissues.

With `C#CCN[C@@H]1CCc2ccccc21` [rasagiline mesylate], the oral bioavailability in series [1] is recorded as roughly 35%.

Turning to `C#CCN[C@@H]1CCc2ccccc21` [rasagiline, R-(+)-N-propargyl-1-aminoindan], the half-life entry in series [2] is recorded as “about 3 hours”. In addition, the MAO-B inhibition result with MAO-B is reported as “potent, irreversible MAO-B selective inhibitor”.
